Reference: patent publication US9862726B2, “Opioid receptor modulating oxabicyclo[2.2.2]octane morphinans” (PURDUE PHARMA L.P., priority 2013, dated 2018)

Key:
κ-opioid receptor [1] = molecular target: T1, κ-opioid receptor (Homo sapiens (Human), UniProt P41145); assay: κ-opioid receptor [35S]GTPγS functional assay (HEK-293 cells); type: biochemical; conditions: for Emax: HEK-293 cells, relative to U69,593
Description: (§1) Functional [^35S]GTPγS binding assays were conducted as follows. κ opioid receptor membrane solution was prepared by sequentially adding final concentrations of 0.026 μg/μl κ membrane protein (in-house), 10 μg/mL saponin, 3 μM GDP and 0.20 nM [^35S]GTPγS to binding buffer (100 mM NaCl, 10 mM MgCl2, 20 mM HEPES, pH 7.4) on ice. The prepared membrane solution (190 μl/well) was transferred to 96-shallow well polypropylene plates containing 10 μl of 20× concentrated stock solutions of agonist prepared in DMSO. Plates were incubated for 30 min at a temperature of about 25° C. with shaking. Reactions were terminated by rapid filtration onto 96-well Unifilter GF/B filter plates (Perkin Elmer, Shelton, Conn.) using a 96-well tissue harvester (Packard) and followed by three filtration washes with 200 μl ice-cold binding buffer (10 mM NaH2PO4, 10 mM Na2HPO4, pH 7.4). Filter plates were subsequently dried at 50° C. for 2-3 hours. Fifty μl/well scintillation cocktail (Perkin Elmer, Shelton, Conn.) was added and plates were counted in a Packard Top-Count for 1 min/well.
(§2) κ GTP EC50 is the concentration of a compound providing 50% of the maximal response for the compound at a κ receptor.
(§3) κ GTP Emax (%) is the maximal effect elicited by a compound relative to the effect elicited by U69,593.
(§4) In TABLE 4, activity response of certain Compounds of the Invention to the μ- and κ-opioid receptors was determined as described above for functional assays using HEK-293 cells.

κ-opioid receptor [2] = molecular target: T1, κ-opioid receptor; assay: κ-opioid receptor functional assay (U-2 OS cells); type: biochemical; conditions: for Emax: U-2 OS cells, relative to U69,593
Description: as §1, §2, §3
The following TABLE 5 provides results on the activity response of certain Compounds of the Invention at the μ- and κ-opioid receptors determined as described above using U-2 OS cells.

μ-opioid receptor [3] = molecular target: T2, μ-opioid receptor (Homo sapiens (Human), UniProt P35372); assay: μ-opioid receptor [35S]GTPγS functional assay (HEK-293 cells); type: biochemical; conditions: for Emax: HEK-293 cells, relative to DAMGO
Description: (§5) [^35S]GTPγS functional assays were conducted using freshly thawed μ-receptor membranes prepared in-house from a cell line expressing recombinant μ opioid receptor in a HEK-293, CHO or U-2 OS cell background, or purchased from a commercial source (Perkin Elmer, Shelton, Conn.; or DiscovRx, Fremont, Calif.). Assay reactions were prepared by sequentially adding the following reagents to binding buffer (100 mM NaCl, 10 mM MgCl2, 20 mM HEPES, pH 7.4) on ice (final concentrations indicated): membrane protein (0.026 mg/mL), saponin ([…]), GDP ([…]) and [^35S]GTPγS (0.20 nM; Perkin Elmer, Shelton, Conn.). The prepared membrane solution (190 μl/well) was transferred to 96-shallow well polypropylene plates containing 10 μl of 20× concentrated stock solutions of the agonist [D-Ala^2, N-methyl-Phe^4 Gly-ol^5]-enkephalin (DAMGO) prepared in dimethyl sulfoxide (DMSO). Plates were incubated for 30 min at about 25° C. with shaking. Reactions were terminated by rapid filtration onto 96-well Unifilter GF/B filter plates (Perkin Elmer, Shelton, Conn.) using a 96-well tissue harvester (Perkin Elmer, Shelton, Conn.) followed by three filtration washes with 200 μl of ice-cold wash buffer (10 mM NaH2PO4, 10 mM Na2HPO4, pH 7.4). Filter plates were subsequently dried at 50° C. for 2-3 hours. BetaScint scintillation cocktail (Perkin Elmer, Shelton, Conn.) was added (50 μl/well) and plates were counted using a Packard Top-Count for 1 min/well. Data were analyzed using the sigmoidal dose-response curve fitting functions in GraphPad PRISM v. 3.0, or an in-house function for non-linear, sigmoidal dose-response curve-fitting. [^35S]GTPγS functional assays can also be conducted using freshly thawed μ-receptor membranes prepared from a cell line expressing recombinant μ opioid receptor in a CHO-K1 cell background.
(§6) μ GTP EC50 is the concentration of a compound providing 50% of the maximal response for the compound at a μ-opioid receptor.
(§7) μ GTP Emax (%) is the maximal effect elicited by a compound relative to the effect elicited by DAMGO, a standard μ agonist.
as §4

[4] = molecular target: recombinant human kappa opioid receptor (κ) (Homo sapiens (Human), UniProt P41145); assay: κ-opioid receptor radioligand dose-displacement binding assay (HEK-293 cells)
Description: Membranes from HEK-293 cells, CHO cells or U-2 OS cells expressing the recombinant human kappa opioid receptor (κ) were prepared by lysing cells in ice cold hypotonic buffer (2.5 mM MgCl2, 50 mM HEPES, pH 7.4) (10 mL/10 cm dish) followed by homogenization with a tissue grinder/Teflon pestle. Membranes from a cell line naturally expressing kappa opioid receptor can also be used. Membranes were collected by centrifugation at 30,000×g for 15 min at 4° C. and pellets were resuspended in hypotonic buffer to a final concentration of 1-3 mg/mL. Protein concentrations were determined using the BioRad protein assay reagent with bovine serum albumen as standard. Aliquots of κ receptor membranes were stored at −80° C.
Radioligand dose displacement assays used 0.4 nM [^3H]-U69,593 (GE Healthcare, Piscataway, N.J.; 40 Ci/mmole) with 15 μg membrane protein (recombinant κ opioid receptor expressed in HEK 293 cells; in-house prep) in a final volume of 200 μl binding buffer (5% DMSO, 50 mM Trizma base, pH 7.4). Non-specific binding was determined in the presence of 10 μM unlabeled naloxone or U69,593. All reactions were performed in 96-well polypropylene plates for 1 hour at a temperature of about 25° C. Binding reactions were terminated by rapid filtration onto 96-well Unifilter GF/C filter plates (Perkin Elmer, Shelton, Conn.) presoaked in 0.5% polyethylenimine (Sigma). Harvesting was performed using a 96-well tissue harvester (Perkin Elmer, Shelton, Conn.) followed by five filtration washes with 200 μl ice-cold binding buffer. Filter plates were subsequently dried at 50° C. for 1-2 hours. Fifty μl/well scintillation cocktail (Perkin Elmer, Shelton, Conn.) was added and plates were counted in a Packard Top-Count for 1 min/well.
(§8) In TABLE 3, binding affinity of certain Compounds of the Invention to the μ- and κ-opioid receptors was determined as described above using HEK-293 cells.

μ-opioid receptor [5] = molecular target: T2, μ-opioid receptor; assay: μ-opioid receptor radioligand dose-displacement binding assay (HEK-293 cells)
Description: Radioligand dose-displacement binding assays for μ-opioid receptors used 0.3 nM [^3H]-diprenorphine (Perkin Elmer, Shelton, Conn.), with […] membrane protein/well in a final volume of 500 μl binding buffer (10 mM MgCl2, 1 mM EDTA, 5% DMSO, 50 mM HEPES, pH 7.4). Reactions were carried out in the absence or presence of increasing concentrations of unlabeled naloxone. All reactions were conducted in 96-deep well polypropylene plates for 2 hours at room temperature. Binding reactions were terminated by rapid filtration onto 96-well Unifilter GF/C filter plates (Perkin Elmer, Shelton, Conn.), presoaked in 0.5% polyethylenimine using a 96-well tissue harvester (Perkin Elmer, Shelton, Conn.) followed by performing three filtration washes with 500 μl of ice-cold binding buffer. Filter plates were subsequently dried at 50° C. for 2-3 hours. BetaScint scintillation cocktail (Perkin Elmer, Shelton, Conn.) was added (50 μl/well), and plates were counted using a Packard Top-Count for 1 min/well. The data were analyzed using the one-site competition curve fitting functions in GraphPad PRISM™ v. 3.0 or higher (San Diego, Calif.), or an in-house function for one-site competition curve-fitting.
as §8

μ-opioid receptor [6] = molecular target: T2, μ-opioid receptor; assay: μ-opioid receptor functional assay (U-2 OS cells); type: biochemical; conditions: for Emax: U-2 OS cells, relative to DAMGO
Description: as §5, §6, §7

## COc1ccc2c(c1)[C@]13CCN(CC4CC4)[C@H](C2)[C@]12CC[C@](O)(C3)C(=O)O2 [Compound 4, (4bR,6S,8aS,9R)-11-(cyclopropylmethyl)-6-hydroxy-3-methoxy-5,6,7,8,9,10-hexahydro-9,4b-(epiminoethano)-8a,6-(epoxymethano)phenanthren-15-one]
κ-opioid receptor [1]
  EC50: 2850 ± 1190 nM
  Emax: 92 ± 6.03%
κ-opioid receptor [2]
  EC50: 1110 ± 159 nM
  Emax: 105 ± 7.02%
μ-opioid receptor [3]
  EC50: > 20000 nM
  Emax: 1%
[4]
  Ki: 251 ± 62.9 nM
μ-opioid receptor [5]
  Ki: 6350 ± 1020 nM

## O=C1O[C@@]23CC[C@]1(O)C[C@@]21CCN(CC2CC2)[C@@H]3Cc2ccc(O)cc21 [Compound 9, (4bR,6S,8aS,9R)-11-(cyclopropylmethyl)-3,6-dihydroxy-5,6,7,8,9,10-hexahydro-9,4b-(epiminoethano)-8a,6-(epoxymethano)phenanthren-15-one]
κ-opioid receptor [1]
  EC50: 54.7 ± 7.26 nM
  Emax: 54 ± 3.89%
κ-opioid receptor [2]
  EC50: 5.23 ± 0.38 nM
  Emax: 91.7 ± 4.84%
μ-opioid receptor [3]
  EC50: > 20000 nM
  Emax: 0.5 ± 0.5%
μ-opioid receptor [6]
  EC50: 9.17 ± 1.18 nM
  Emax: 63.7 ± 5.21%
[4]
  Ki: 0.95 ± 0.29 nM
μ-opioid receptor [5]
  Ki: 10.1 ± 2.46 nM

## O=C(N[C@]12CC[C@@]3(OC1)[C@H]1Cc4ccc(O)cc4[C@@]3(CCN1CC1CC1)C2)c1ccccc1 [Compound 27, N-((4bR,6S,8aS,9R)-11-(cyclopropylmethyl)-3-hydroxy-5,6,7,8,9,10-hexahydro-9,4b-(epiminoethano)-8a,6-(epoxymethano)phenanthren-6-yl)benzamide]
κ-opioid receptor [1]
  EC50: 0.14 nM
  Emax: 94.2 ± 2.12%
κ-opioid receptor [2]
  EC50: 0.028 nM
  Emax: 93.3 ± 3.84%
μ-opioid receptor [3]
  EC50: 0.58 ± 0.18 nM
  Emax: 34.7 ± 1.45%
μ-opioid receptor [6]
  EC50: 0.037 ± 0.01 nM
  Emax: 112 ± 3.51%
[4]
  Ki: 0.062 ± 0.012 nM
μ-opioid receptor [5]
  Ki: 0.019 ± 0.01 nM

## N[C@]12CC[C@@]3(OC1)[C@H]1Cc4ccc(O)cc4[C@@]3(CCN1CC1CC1)C2 [Compound 17, (4bR,6S,8aS,9R)-6-amino-11-(cyclopropylmethyl)-5,6,7,8,9,10-hexahydro-9,4b-(epiminoethano)-8a,6-(epoxymethano)phenanthren-3-ol]
κ-opioid receptor [1]
  EC50: 0.48 ± 0.02 nM
  Emax: 75 ± 5.03%
κ-opioid receptor [2]
  EC50: 0.3 ± 0.032 nM
  Emax: 106 ± 6.84%
μ-opioid receptor [3]
  EC50: > 20000 nM
  Emax: 0%
μ-opioid receptor [6]
  EC50: 0.65 ± 0.078 nM
  Emax: 77 ± 1%
[4]
  Ki: 0.096 ± 0.026 nM
μ-opioid receptor [5]
  Ki: 0.79 ± 0.19 nM

## COc1ccc2c(c1)[C@]13CCN(CC4CC4)[C@H](C2)[C@]12CC[C@](N)(C3)C(=O)O2 [Compound 3, (4bR,6S,8aS,9R)-6-amino-11-(cyclopropylmethyl)-3-methoxy-5,6,7,8,9,10-hexahydro-9,4b-(epiminoethano)-8a,6-(epoxymethano)phenanthren-15-one]
κ-opioid receptor [1]
  EC50: 3010 ± 274 nM
  Emax: 79.7 ± 10.3%
κ-opioid receptor [2]
  EC50: 807 ± 83.2 nM
  Emax: 99 ± 1.73%
μ-opioid receptor [3]
  EC50: 2980 ± 706 nM
  Emax: 48.3 ± 6.01%
[4]
  Ki: 248 ± 54.6 nM
μ-opioid receptor [5]
  Ki: 1330 ± 313 nM

## COc1ccc2c(c1)[C@]13CCN(CC4CC4)[C@H](C2)[C@]12CC[C@@](NC(=O)C(C)(C)C)(CO2)C3 [Compound 21, N-((4bR,6S,8aS,9R)-11-(cyclopropylmethyl)-3-methoxy-5,6,7,8,9,10-hexahydro-9,4b-(epiminoethano)-8a,6-(epoxymethano)phenanthren-6-yl)pivalamide]
κ-opioid receptor [1]
  EC50: 3.25 ± 0.37 nM
  Emax: 97.3 ± 1.33%
κ-opioid receptor [2]
  EC50: 1.12 ± 0.056 nM
  Emax: 111 ± 3.28%
μ-opioid receptor [3]
  EC50: 359 ± 128 nM
  Emax: 35 ± 4.04%
μ-opioid receptor [6]
  EC50: 86.8 ± 2.57 nM
  Emax: 92.7 ± 2.91%
[4]
  Ki: 0.33 ± 0.023 nM
μ-opioid receptor [5]
  Ki: 265 ± 77.5 nM

## COc1ccc2c(c1)[C@]13CCN(CC4CC4)[C@H](C2)[C@]12CC[C@@](NC(=O)c1ccccc1)(CO2)C3 [Compound 18, N-((4bR,6S,8aS,9R)-11-(cyclopropylmethyl)-3-methoxy-5,6,7,8,9,10-hexahydro-9,4b-(epiminoethano)-8a,6-(epoxymethano)phenanthren-6-yl)benzamide]
κ-opioid receptor [2]
  EC50: 0.42 ± 0.016 nM
  Emax: 111 ± 2.6%
μ-opioid receptor [3]
  EC50: 175 ± 21.7 nM
  Emax: 41 ± 1.58%
μ-opioid receptor [6]
  EC50: 7.53 ± 0.69 nM
  Emax: 107 ± 8.35%
[4]
  Ki: 0.032 ± 0.01 nM
μ-opioid receptor [5]
  Ki: 35.9 ± 8.18 nM
